Results reported in patent publication US9839642B2, “Beta-tetrazolyl-propionic acids as metallo-beta-lactamase inhibitors” (priority 2014, dated 2017).

Key:
[1] = test system: Klebsiella pneumoniae expressing VIM-1 (IHMA599644); assay: Antibiotic potentiation activity: synergistic concentration (MITC95) with imipenem, growth by OD600; assay type: cell-based; settings: K. pneumoniae IHMA599644 (VIM-1), 95% inhibition of growth
Summary of the method: (§1)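 Colonies from overnight agar plates (35 °C) were suspended in saline and diluted 1:100 into 1.1× CAMHB. Inhibitor (final 200 μM to 0.195 μM) was combined with imipenem at 1 or 4 μg/ml, incubated 22–24 h at 35 °C, and absorbance read; MITC95 is the lowest inhibitor concentration giving 95% growth inhibition.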

[2] = test system: Serratia marcescens expressing IMP-1 (CL5741); assay: as above; assay type: cell-based; settings: S. marcescens CL5741 (IMP-1), 95% inhibition of growth
Summary of the method: as §1

[3] = test system: Escherichia coli expressing NDM-1 (CLB30016); assay: as above; assay type: cell-based; settings: E. coli CLB30016 (NDM-1), 95% inhibition of growth
Summary of the method: as §1

VIM-1 = VIM-1 (Pseudomonas aeruginosa, UniProt A0A0F7KYQ8); assay: Enzyme activity: determination of IC50, fluorescence assay with CCF2-FA substrate; assay type: biochemical; settings: VIM-1 enzyme 30 pM, CCF2-FA 1.25 μM, 2 hours at 25° C.; read-out: VIM1 IC50
Summary of the method: (§2)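 Final enzyme levels differed by target: 1 pM NDM-1, 2 pM IMP-1, 30 pM VIM-1. Each was incubated 2 hours at 25° C with test compound and 1.25 μM CCF2-FA, and 460 nm fluorescence (405 nm excitation) was fitted by 4-parameter curve to obtain IC50.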

IMP-1 = IMP-1 (Serratia marcescens, UniProt P52699); assay: as above; assay type: biochemical; settings: IMP-1 enzyme 2 pM, CCF2-FA 1.25 μM, 2 hours at 25° C.; read-out: IMP1 IC50
IMP-1, sequence (P52699 19-246, looked up, species assumed): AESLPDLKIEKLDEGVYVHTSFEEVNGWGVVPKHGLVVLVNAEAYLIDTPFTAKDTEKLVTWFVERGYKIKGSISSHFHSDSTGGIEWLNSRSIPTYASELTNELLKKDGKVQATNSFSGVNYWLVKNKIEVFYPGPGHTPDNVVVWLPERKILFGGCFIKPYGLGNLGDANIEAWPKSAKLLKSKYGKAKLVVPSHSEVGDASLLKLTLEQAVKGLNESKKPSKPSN
Summary of the method: as §2

NDM-1 = NDM-1 (Klebsiella pneumoniae, UniProt C7C422); assay: as above; assay type: biochemical; settings: NDM-1 enzyme 1 pM, CCF2-FA 1.25 μM, 2 hours at 25° C.; read-out: NDM1 IC50
NDM-1, sequence (C7C422 29-270, looked up, species assumed): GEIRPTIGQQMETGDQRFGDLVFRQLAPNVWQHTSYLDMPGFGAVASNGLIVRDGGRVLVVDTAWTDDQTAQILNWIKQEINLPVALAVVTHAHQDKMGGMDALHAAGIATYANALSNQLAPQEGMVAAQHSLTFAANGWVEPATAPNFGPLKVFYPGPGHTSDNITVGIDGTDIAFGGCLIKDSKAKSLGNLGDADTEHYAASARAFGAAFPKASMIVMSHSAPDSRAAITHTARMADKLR
Summary of the method: as §2

Compound	VIM1 KP599644 MITC95 [1] [µM]	IMP1 SM5741 MITC95 [2] [µM]	NDM1 EC30016 MITC95 [3] [µM]	IC50 (VIM-1) [nM]	IC50 (IMP-1) [nM]	IC50 (NDM-1) [nM]
CC(C)C[C@H](C(=O)O)[C@H](Cc1ccc(Oc2ccc(CO)cc2)nc1)c1nn[nH]n1 [Example 383, (2S)-2-[(1S)-2-{6-[4-(hydroxymethyl)phenoxy]pyridin-3-yl}-1-(2H-tetrazol-5-yl)ethyl]-4-methylpentanoic acid]	150	12.5	25	56	150	34
CC(C)C[C@H](C(=O)O)[C@H](Cc1ccc(Oc2ccc(CC(C)(C)N)cc2)nc1)c1nn[nH]n1 [Example 386, (2S)-2-[(1S)-2-{6-[4-(2-amino-2-methylpropyl)phenoxy]pyridin-3-yl}-1-(2H-tetrazol-5-yl)ethyl]-4-methylpentanoic acid]	>200	12.5	25	100	180	120
CC(C)C[C@H](C(=O)O)[C@H](Cc1ccc(Oc2cccc3c2CCNC3)nc1)c1nn[nH]n1 [Example 388, (2S)-4-methyl-2-[(1S)-2-[6-(1,2,3,4-tetrahydroisoquinolin-5-yloxy)pyridin-3-yl]-1-(2H-tetrazol-5-yl)ethyl]pentanoic acid]	38	18.8	25	18	340	130
CC(C)C[C@H](C(=O)O)[C@H](Cc1ccc(Oc2cccc3c2CCCN3)nc1)c1nn[nH]n1 [Example 389, (2S)-4-methyl-2-[(1S)-2-[6-(1,2,3,4-tetrahydroquinolin-5-yloxy)pyridin-3-yl]-1-(2H-tetrazol-5-yl)ethyl]pentanoic acid]	100	6.2	25	4.4	58	16
CC(C)C[C@H](C(=O)O)[C@H](Cc1ccc(Oc2ccc(CN)cc2)nc1)c1nn[nH]n1 [Example 390, (2S)-2-[(1S)-2-{6-[4-(aminomethyl)phenoxy]pyridin-3-yl}-1-(2H-tetrazol-5-yl)ethyl]-4-methylpentanoic acid]	25	12.5	1.6	5.3	240	35
CC(C)C[C@H](C(=O)O)[C@H](Cc1ccc(Oc2ccccn2)nc1)c1nn[nH]n1 [Example 391, (2S)-4-methyl-2-[(1S)-2-[6-(pyridin-2-yloxy)pyridin-3-yl]-1-(2H-tetrazol-5-yl)ethyl]pentanoic acid]	100	25	25	52	640	44
CCC[C@H](C(=O)O)[C@H](Cc1ccccc1-c1ccccc1)c1nn[nH]n1 [Example 393, (2S)-2-[(1S)-2-biphenyl-2-yl-1-(2H-tetrazol-5-yl)ethyl]pentanoic acid]	75	25	4.7	4.5	1000	3.2
CCC[C@H](C(=O)O)[C@H](Cc1ccccc1-c1ccc(C(N)=O)cc1)c1nn[nH]n1 [Example 394, (2S)-2-[(1S)-2-(4′-carbamoylbiphenyl-2-yl)-1-(2H-tetrazol-5-yl)ethyl]pentanoic acid]	38	25	4.7	3.9	450	2.2
CCC[C@H](C(=O)O)[C@H](Cc1ccccc1-c1ccc(C2CCNCC2)cc1)c1nn[nH]n1 [Example 395, (2S)-2-[(1S)-2-(4′-piperidin-4-ylbiphenyl-2-yl)-1-(2H-tetrazol-5-yl)ethyl]pentanoic acid]	16	6.25	6.2	0.48	120	0.1
CCC[C@H](C(=O)O)[C@H](Cc1ccccc1-c1cccnc1)c1nn[nH]n1 [Example 396, (2S)-2-[(1S)-2-(2-pyridin-3-ylphenyl)-1-(2H-tetrazol-5-yl)ethyl]pentanoic acid]	50	75	9.4	18	2800	9.2
